In ChEMBL document CHEMBL1275248, “Two novel antibiotic resistance genes, tet(44) and ant(6)-Ib, are located within a transferable pathogenicity island in Campylobacter fetus subsp. fetus” (2010):

Legend:
[1] = Antimicrobial activity against nalidixic acid-resistant Campylobacter fetus subsp. fetus IMD523-06 bovine isolate harboring tet(44) and ant(6)-Ib resistance gene in presence of 5% lacked horse blood; type: functional
[2] = Antimicrobial activity against Campylobacter fetus subsp. fetus CA73 harboring pCA73 carrying tet(44) resistance gene of 1516477 in presence of 5% lacked horse blood; type: functional
[3] = Antimicrobial activity against kanamycin-resistant Campylobacter fetus subsp. fetus CA74 harboring deletion in tet(44)::pCA64 resistant gene in presence of 5% lacked horse blood; type: functional
[4] = Antimicrobial activity against Campylobacter fetus subsp. fetus CA75 harboring pCA75 carrying ant(6)-Ib resistant gene of 1516477 in presence of 5% lacked horse blood; type: functional
[5] = Antimicrobial activity against kanamycin-resistant Campylobacter fetus subsp. fetus CA76 harboring deletion in ant(6)-Ib::pCA76 in presence of 5% lacked horse blood; type: functional
[6] = Antimicrobial activity against Campylobacter fetus subsp. fetus CA80 harboring ciprofloxacin-resistant gene and IMD523-06 pathogenicity island with tet(44) and ant(6)-Ib resistant marker gene in presence of 5% lacked horse blood; type: functional
[7] = Antimicrobial activity against ciprofloxacin-resistant Campylobacter fetus subsp. fetus 1516477 human isolate lacking tet(44) and ant(6)-Ib resistance genes in presence of 5% lacked horse blood

C[C@H]1c2cccc(O)c2C(=O)C2=C(O)[C@]3(O)C(=O)C(C(N)=O)=C(O)[C@@H](N(C)C)[C@@H]3[C@@H](O)[C@@H]21.O [DOXYCYCLINE]
MIC [1]: 8 µg/mL
MIC [2]: 32 µg/mL
MIC [3]: 0.5 µg/mL
MIC [4]: 0.5 µg/mL
MIC [5]: 8 µg/mL
MIC [6]: 4 µg/mL
MIC [7]: 0.5 µg/mL

CN(C)c1ccc(O)c2c1C[C@H]1C[C@H]3[C@H](N(C)C)C(O)=C(C(N)=O)C(=O)[C@@]3(O)C(O)=C1C2=O [MINOCYCLINE]
MIC [1]: 16 µg/mL
MIC [2]: 32 µg/mL
MIC [3]: 2 µg/mL
MIC [4]: 1 µg/mL
MIC [5]: 16 µg/mL
MIC [6]: 16 µg/mL
MIC [7]: 1 µg/mL

CN[C@@H]1[C@H](O[C@H]2[C@H](O[C@H]3[C@H](O)[C@@H](O)[C@H](N=C(N)N)[C@@H](O)[C@@H]3N=C(N)N)O[C@@H](C)[C@]2(O)C=O)O[C@@H](CO)[C@H](O)[C@H]1O [STREPTOMYCIN]
MIC [1]: > 64 µg/mL
MIC [2]: ≤ 1 µg/mL
MIC [3]: > 64 µg/mL
MIC [4]: 64 µg/mL
MIC [5]: ≤ 1 µg/mL
MIC [6]: 64 µg/mL
MIC [7]: ≤ 1 µg/mL

CN(C)[C@@H]1C(O)=C(C(N)=O)C(=O)[C@@]2(O)C(O)=C3C(=O)c4c(O)cccc4[C@@](C)(O)[C@H]3C[C@@H]12 [TETRACYCLINE]
MIC [1]: 16 µg/mL
MIC [2]: > 32 µg/mL
MIC [3]: 1 µg/mL
MIC [4]: 1 µg/mL
MIC [5]: 16 µg/mL
MIC [6]: 16 µg/mL
MIC [7]: 1 µg/mL
